Source: BindingDB's records for doi:10.1111/j.1747-0285.2010.01036.x (Ataturk University, 2010)

biological target: Serum paraoxonase/arylesterase 1 (Homo sapiens, UniProt P27169); assay: In Vitro Inhibtion Assay
Experimental: The inhibitory effects of six sulfonamide derivatives was examined against the purified enzyme hPON1 and were tested in a triplicate experiment in five different concentrations (0.15, 0.3, 0.45, 0.6, and 0.75 mM).

Serum paraoxonase/arylesterase 1, sequence (P27169 whole entry): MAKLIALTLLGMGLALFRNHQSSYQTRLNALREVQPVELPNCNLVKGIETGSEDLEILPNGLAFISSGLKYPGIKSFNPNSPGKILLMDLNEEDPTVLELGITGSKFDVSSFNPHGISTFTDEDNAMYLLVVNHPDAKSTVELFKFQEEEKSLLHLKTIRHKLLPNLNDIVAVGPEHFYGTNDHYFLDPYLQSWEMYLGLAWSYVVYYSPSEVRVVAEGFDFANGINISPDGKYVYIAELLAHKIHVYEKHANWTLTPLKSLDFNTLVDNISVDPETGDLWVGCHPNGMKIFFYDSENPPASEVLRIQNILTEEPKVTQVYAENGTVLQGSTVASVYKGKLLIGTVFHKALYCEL

IC50 [µM]	Ki [µM]	SMILES
1240	2010	Nc1nnc(S(N)(=O)=O)s1 [1,3,4-thiadiazole-2-sulfonamide 15]
360	702	NS(=O)(=O)c1cc(C(=O)O)c(NCc2ccco2)cc1Cl [4-chloro-2-[(furan-2-ylmethyl)amino]-5-sulfamoylbenzoic acid]
800	743	CC(=O)Nc1nnc(S(N)(=O)=O)s1 [Acetazolamide, AAZ]
180	86	CC(=O)NS(=O)(=O)c1ccc(N)cc1 [Cetamide]
190	340	NCc1ccc(S(N)(=O)=O)cc1 [aromatic sulfonamide compound 6]
